Results on six molecules are retold here after paper PMC4641453 (Science translational medicine, 2015).

Structures are written as SMILES. In brackets after ≈: the same amount, converted by molar mass. Like-named read-outs stand apart in the source and are kept apart here.

One data set concerns S. pneumoniae isolates. Format: cell-based. Conditions: Streptococcus pneumoniae.
For data set [1], the system named is Streptococcus pneumoniae (R6). Description: microbe, parasite or virus in culture. Format: cell-based. Conditions: read-out: MIC Spn.
The test system of data set [2] is Streptococcus pyogenes (ATCC 700294). Description: microbe, parasite or virus in culture. Conditions: ATCC700294, read-out: MIC Spy. Format: cell-based.
For data set [3], the system named is MSSA, Staphylococcus aureus (ATCC 29213). Put plainly: microbe, parasite or virus in culture. Type of data set: cell-based. Conditions: ATCC29213|MSSA, read-out: MIC MSSA.
Data set [4] concerns MRSA, Staphylococcus aureus (NRS70). Put plainly: microbe, parasite or virus in culture. Format: cell-based. Particulars: MRSA|NRS70, read-out: MIC MRSA.
In data set [5] the test system is Enterococcus faecalis (ATCC 33186). Put plainly: microbe, parasite or virus in culture. Conditions: ATCC33186, read-out: MIC Ef. Type of data set: cell-based.
In data set [6] the test system is Bacillus subtilis (ATCC 23857). Put plainly: microbe, parasite or virus in culture. Type of data set: cell-based. Conditions: ATCC23857, read-out: MIC Bs.
Data set [7] concerns Listeria monocytogenes (NS512). Put plainly: microbe, parasite or virus in culture. Type of data set: cell-based.
In data set [8] the test system is Neisseria gonorrhoeae (ATCC 49226). Type of data set: cell-based. Particulars: 40 μg of compound on 6 mm disc; range of two experiments.
For data set [9], the system named is Neisseria meningitidis (ATCC 13077). Put plainly: microbe, parasite or virus in culture. Format: cell-based. Conditions: ATCC13077, read-out: Zone of inhibition Nm.
In data set [10] the test system is Haemophilus influenzae (ATCC 49247). Description: microbe, parasite or virus in culture. Type of data set: cell-based. Particulars: ATCC49247, read-out: Zone of inhibition Hi.
In data set [11] the test system is Legionella pneumophila (ATCC 33153). Put plainly: microbe, parasite or virus in culture. Format: cell-based.
The test system of data set [12] is Streptococcus pneumoniae mutants resistant to compound 1. Description: In vitro generation and MIC testing of compound 1 resistant mutants. Format: cell-based. Conditions: fifteen compound 1 resistant S. pneumoniae clones (RpsE G27R).
Data set [13] relates to Moraxella catarrhalis (ATCC 25238). Put plainly: microbe, parasite or virus in culture. Format: cell-based. Particulars: ATCC25238, read-out: MIC Moraxella catarrhalis.
Data set [14] is classed as physicochemical. Conditions: pH 7.
The test system of data set [15] is S. pneumoniae strain D39x. Description: Mouse intranasal pneumococcal challenge, pneumonia and bacteremia. Format: in vivo, mice.
For data set [16], the system named is S. pneumoniae strain TIGR4. Description: Mouse intranasal pneumococcal challenge, bacteremia and meningitis. Format: in vivo, mice. Particulars: 5 mg/kg from 18 hours after intranasal challenge.
The conditions of data set [17]: mean (% CV); cited from earlier work.
For data set [18] the following is noted: rat, in vivo, 10 mg/kg; cited from earlier work.
The subject of data set [19] is Chlamydia trachomatis serovar L2 (strain 434/Bu). Description: Chlamydial susceptibility testing in infected HeLa 229 monolayers. Particulars: up to 100 μg/mL, C. trachomatis-infected monolayers.
Where [20] appears, read: ATCC700904, read-out: MIC ATCC700904.

As to `CO/N=C(\C(=O)N[C@@H]1C(=O)N2C(C(=O)O)=C(COC(C)=O)CS[C@H]12)c1csc(N)n1` [Cefotaxime], the MIC is 0.2 µg/mL (≈ 0.439 µM) with S. pneumoniae isolates (setting [20]); 3 µg/mL (≈ 6.59 µM) with S. pneumoniae isolates (read-out: MIC 8249); 1 µg/mL (≈ 2.2 µM) in the data set on S. pneumoniae isolates (read-out: MIC Daw19); 3 µg/mL (≈ 6.59 µM) in the data set with S. pneumoniae isolates (read-out: MIC Daw26); 3 µg/mL (≈ 6.59 µM) with S. pneumoniae isolates (read-out: MIC Daw47).

For the molecule `CC[C@H]1OC(=O)[C@H](C)[C@@H](O[C@H]2C[C@@](C)(OC)[C@@H](O)[C@H](C)O2)[C@H](C)[C@@H](O[C@@H]2O[C@H](C)C[C@H](N(C)C)[C@H]2O)[C@](C)(O)C[C@@H](C)C(=O)[C@H](C)[C@@H](O)[C@]1(C)O` [Erythromycin], the MIC is 2 µg/mL (≈ 2.73 µM) in the data set on S. pneumoniae isolates (setting [20]); more than 2 µg/mL with S. pneumoniae isolates (read-out: MIC 8249); 50 µg/mL (≈ 68.1 µM) with S. pneumoniae isolates (read-out: MIC BAA-1407); not above 0.2 µg/mL in the data set with S. pneumoniae isolates (read-out: MIC Daw7); not above 0.2 µg/mL in the data set with S. pneumoniae isolates (read-out: MIC Daw8); 2 µg/mL (≈ 2.73 µM) in the data set with S. pneumoniae isolates (read-out: MIC Daw9). Moreover, the MIC is 1 µg/mL (≈ 1.36 µM) with S. pneumoniae isolates (read-out: MIC Daw19); 0.1 µg/mL (≈ 0.136 µM) in the data set on S. pneumoniae isolates (read-out: MIC Daw26); 1 µg/mL (≈ 1.36 µM) with S. pneumoniae isolates (read-out: MIC Daw27); 0.03 µg/mL (≈ 0.0409 µM) in the data set with S. pneumoniae isolates (read-out: MIC Daw47); not above 0.2 µg/mL with S. pneumoniae isolates (read-out: MIC Daw62); not above 0.2 µg/mL with S. pneumoniae isolates (read-out: MIC Daw64). Also, the MIC is 1 µg/mL (≈ 1.36 µM) in the data set with S. pneumoniae isolates (read-out: MIC OVA2) and not above 0.2 µg/mL in the data set on S. pneumoniae isolates (read-out: MIC R6).

On to `CC1(C)S[C@@H]2[C@H](NC(=O)Cc3ccccc3)C(=O)N2[C@H]1C(=O)O` [Penicillin G], for which the MIC in the data set with S. pneumoniae isolates (setting [20]) is more than 2 µg/mL; in the data set on S. pneumoniae isolates (read-out: MIC 8249), more than 2 µg/mL; with S. pneumoniae isolates (read-out: MIC A66.1x) it was not above 0.2 µg/mL; with S. pneumoniae isolates (read-out: MIC BAA-1407), 2 µg/mL (≈ 5.98 µM); in the data set with S. pneumoniae isolates (read-out: MIC BHN97x), not above 0.2 µg/mL; in the data set on S. pneumoniae isolates (read-out: MIC D39X), not above 0.2 µg/mL. Moreover, the MIC with S. pneumoniae isolates (read-out: MIC Daw7) was found to be 3 µg/mL (≈ 8.97 µM); in the data set with S. pneumoniae isolates (read-out: MIC Daw8) it was 3 µg/mL (≈ 8.97 µM); in the data set with S. pneumoniae isolates (read-out: MIC Daw9), 2 µg/mL (≈ 5.98 µM); in the data set with S. pneumoniae isolates (read-out: MIC Daw19) it was 3 µg/mL (≈ 8.97 µM); in the data set with S. pneumoniae isolates (read-out: MIC Daw26) it was 3 µg/mL (≈ 8.97 µM); in the data set on S. pneumoniae isolates (read-out: MIC Daw27) it was 3 µg/mL (≈ 8.97 µM). Further, the MIC in the data set with S. pneumoniae isolates (read-out: MIC Daw47) was 3 µg/mL (≈ 8.97 µM); with S. pneumoniae isolates (read-out: MIC Daw62), 3 µg/mL (≈ 8.97 µM); in the data set with S. pneumoniae isolates (read-out: MIC Daw64), 2 µg/mL (≈ 5.98 µM); in the data set on S. pneumoniae isolates (read-out: MIC OVA2), not above 0.2 µg/mL; in the data set with S. pneumoniae isolates (read-out: MIC R6), not above 0.2 µg/mL; with S. pneumoniae isolates (read-out: MIC T4X) it was not above 0.2 µg/mL.

A word on the zone of inhibition: it is the size of the clear area around the sample on an inoculated plate. Turning to `CN[C@@H]1[C@H](O)[C@H](NC)[C@H]2O[C@@]3(O)C(=O)C[C@@H](C)O[C@H]3O[C@@H]2[C@H]1O` [Spectinomycin, spectinomycin], the MIC in data set [1] was 12.5 µg/mL (≈ 37.6 µM); in data set [2] it was 25 µg/mL (≈ 75.2 µM); in data set [3], 100 µg/mL (≈ 301 µM); in data set [4], more than 200 µg/mL; in [5], 100 µg/mL (≈ 301 µM); in [6], 12.5 µg/mL (≈ 37.6 µM). Moreover, the MIC stood at 50 µg/mL (≈ 150 µM) in [7] (Listeria monocytogenes, read-out: MIC Lm); 25 µg/mL (≈ 75.2 µM) in the data set on S. pneumoniae isolates (setting [20]); 25 µg/mL (≈ 75.2 µM) in the data set on S. pneumoniae isolates (read-out: MIC 8249); 6 µg/mL (≈ 18.1 µM) in the data set on S. pneumoniae isolates (read-out: MIC A66.1x); 13 µg/mL (≈ 39.1 µM) with S. pneumoniae isolates (read-out: MIC BAA-1407); 6 µg/mL (≈ 18.1 µM) in the data set on S. pneumoniae isolates (read-out: MIC BHN97x). Also, the MIC in the data set with S. pneumoniae isolates (read-out: MIC D39X) was found to be 13 µg/mL (≈ 39.1 µM); with S. pneumoniae isolates (read-out: MIC Daw7), 25 µg/mL (≈ 75.2 µM); in the data set on S. pneumoniae isolates (read-out: MIC Daw8) it was 25 µg/mL (≈ 75.2 µM); with S. pneumoniae isolates (read-out: MIC Daw9) it was 13 µg/mL (≈ 39.1 µM); with S. pneumoniae isolates (read-out: MIC Daw19), 25 µg/mL (≈ 75.2 µM); with S. pneumoniae isolates (read-out: MIC Daw26), 50 µg/mL (≈ 150 µM). Besides, the MIC with S. pneumoniae isolates (read-out: MIC Daw27) was found to be 25 µg/mL (≈ 75.2 µM); in the data set with S. pneumoniae isolates (read-out: MIC Daw47) it was 25 µg/mL (≈ 75.2 µM); with S. pneumoniae isolates (read-out: MIC Daw62) it was 25 µg/mL (≈ 75.2 µM); with S. pneumoniae isolates (read-out: MIC Daw64), 25 µg/mL (≈ 75.2 µM); in the data set with S. pneumoniae isolates (read-out: MIC OVA2), 13 µg/mL (≈ 39.1 µM); in the data set on S. pneumoniae isolates (read-out: MIC R6), 13 µg/mL (≈ 39.1 µM). The figures for the MIC (with S. pneumoniae isolates (read-out: MIC T4X); in data set [13]) were 13 µg/mL (≈ 39.1 µM) and 6 µg/mL (≈ 18.1 µM), respectively. The “MIC Lm” value in data set [7] (NS512, range of two independent experiments) is 50 µg/mL (≈ 150 µM). In [8], the “Zone of inhibition Ng” value is recorded as 10–11.5 mm. In addition, the zone of inhibition at 40 µg/disc was 13 to 15 mm in data set [9]; 12 mm in [10]; 0 mm in data set [11] (Legionella pneumophila, ATCC33153, 48 h, read-out: Zone of inhibition Lp). Moreover, the “Zone of inhibition Lp” value in data set [11] (40 μg of compound on 6 mm disc, 48 hours, range of two experiments) is “completely inactive”. Besides, the “MIC against resistant clones” value in [12] is “weakly susceptible”. In addition, the “Chemical stability (percent of parent over time)” value in [14] was “continuously declined over time”. The “Survival of infected mice” value in data set [15] (5 mg/kg BID subcutaneous from 18 hours post challenge, D39x, n=5) is on record as “died or were humanely euthanized by 120 hours post challenge”; in data set [16] it was “did not survive beyond 96 hours”. For the same molecule, the “Bioluminescent imaging of infection” value in data set [15] (72 hours post challenge, 5 mg/kg BID) is given as “systemic bacterial infection”. Moreover, the “Microsomal Stability t1/2” value in data set [17] is recorded as 6.43 (0.13) hr. Besides, in [18], the “IV Pharmacokinetics CL” value was 0.60 (11.5) L/hr/Kg. Further, in [18], the “IV Pharmacokinetics T1/2” value is reported as 0.75 (49.3) hr. In addition, the “IV Pharmacokinetics Vd” value in [18] is given as 0.76 (45.2) L/Kg. Further, in data set [18], the “IV Pharmacokinetics fe (fraction excreted unchanged in urine)” value is 0.55 (27.0). Further, in data set [19], the “Reduction of intracellular inclusions” value is recorded as “failed to reduce intracellular inclusions”.

For `[H]/N=C(/N)N[C@H]1[C@H](O)[C@@H](O)[C@H](O[C@@H]2O[C@@H](C)[C@](O)(C=O)[C@H]2O[C@@H]2O[C@@H](CO)[C@H](O)[C@@H](O)[C@@H]2NC)[C@@H](N/C(N)=N\[H])[C@@H]1O` [Streptomycin], the MIC is more than 200 µg/mL with S. pneumoniae isolates (setting [20]); more than 200 µg/mL with S. pneumoniae isolates (read-out: MIC 8249); 13 µg/mL (≈ 22.4 µM) with S. pneumoniae isolates (read-out: MIC A66.1x); 50 µg/mL (≈ 86 µM) in the data set on S. pneumoniae isolates (read-out: MIC BAA-1407); 13 µg/mL (≈ 22.4 µM) with S. pneumoniae isolates (read-out: MIC BHN97x); 13 µg/mL (≈ 22.4 µM) with S. pneumoniae isolates (read-out: MIC D39X). In addition, the MIC is 25 µg/mL (≈ 43 µM) in the data set on S. pneumoniae isolates (read-out: MIC Daw7); 25 µg/mL (≈ 43 µM) in the data set with S. pneumoniae isolates (read-out: MIC Daw8); more than 200 µg/mL with S. pneumoniae isolates (read-out: MIC Daw9); 25 µg/mL (≈ 43 µM) with S. pneumoniae isolates (read-out: MIC Daw62); 25 µg/mL (≈ 43 µM) in the data set on S. pneumoniae isolates (read-out: MIC Daw64); 13 µg/mL (≈ 22.4 µM) with S. pneumoniae isolates (read-out: MIC OVA2). Further, the MIC was 13 µg/mL (≈ 22.4 µM) in the data set with S. pneumoniae isolates (read-out: MIC R6) and 6 µg/mL (≈ 10.3 µM) in the data set on S. pneumoniae isolates (read-out: MIC T4X).

Turning to `CC1(C)S[C@@H]2[C@H](NC(=O)[C@H](N)c3ccccc3)C(=O)N2[C@H]1C(=O)O` [ampicillin], the “Survival of infected mice, 9 day experiment” value in data set [15] (matched doses 2.5 or 5 mg/kg) was “all survived”. In addition, the “Reduction of bacterial titers” value in [15] (within 48 hours post infection, 2.5 or 5 mg/kg) is given as “more than 3 logs”.
